From patent US20150309031A2, “COMPOSITIONS AND METHODS FOR PROGNOSIS AND TREATMENT OF CANCER” (NOVAZOI THERANOSTICS, priority 2013, published 2015)

What was measured:
Type in all cases: cell-based
HeLa cells [1] = assay: subG1 (hypodiploid) fraction by flow cytometry, HeLa cells
Description: (§1) Trypsinized cells were resuspended in PBS at 10^6 cells/ml. Cells were then fixed by addition of ice-cold 70% ethanol. Ethanol-fixed cells were kept overnight at 4° C. before staining. Cells were pelleted and washed twice with PBS. Cell pellets were incubated for an hour at room temperature with mouse anti-MPM-2 antibody (Millipore, Mass., USA), followed by 1 h incubation with Alexa-488 anti-mouse secondary antibody (Life Technologies, NY, USA). Finally cells were washed, pelleted and resuspended in propidium iodide-containing isotonic buffer (0.1 mg/mL) and 0.5% Triton X-100. Cell cycle distribution was determined by flow cytometry using an LSR Fortessa Flow cytometer (BD Biosciences, CA, USA) and analyzed using Flowjo software (Tree Star, OR, USA). […] The duration, highest degree, and rapidity of onset of MA varied between drugs, drug concentrations, and cell lines (FIGS. 2A, 2B). In general, the maximum MA achieved was less pronounced in Nos- and PJ-treated cells (FIGS. 2A, 2B). Drug-induced onset of MA was corroborated by substantial increases in cyclin B1 levels in all cell lines (FIG. 2C). […] Instances where the subG1 fraction was elevated without cleaved caspase-3 may either represent caspase-independent cell death or the presence of hypodiploid cells whose fate is unclear.

[2] = tested on: mammary fibrocystic (MCF10A) cells; assay: subG1 (hypodiploid) fraction by flow cytometry, MCF10A cells; settings: for change of peak subG1 percent compared to controls (in words): MCF10A cells; for Peak subG1 percent over 48 h: MCF10A
MCF10A cells = assay: Centrosome amplification (CA) by microscopy, MCF10A cells; settings: for change of CA over control levels (in words): interphase and mitotic cells, over 24 h
Description: (§2) Consequently, CA was assessed in cultures treated with different concentrations of declustering drugs for 6, 12, 18, or 24 h and untreated controls via microscopy. Centrosomes were identified by γ-tubulin and centrin-2 colocalization at discrete foci. […] The peak percent CA detected over 24 h is shown in FIG. 6 (only statistically significant (P<0.05) increases over control values are represented in the Figures). Representative confocal micrographs of CA in interphase and mitotic cells, both control and drug treated, are depicted in FIG. 7. No significant correlations between the degree of CA (FIG. 5A) and the expression levels of PLK4, Cyclin E, and Aurora A were found (FIG. 4).
(§3) To determine whether the CA-inducing activity of declustering drugs is restricted to cancer cells, two non-malignant cell lines, mammary fibrocystic (MCF10A) cells and adult human dermal fibroblasts were treated with these drugs. Neither one of RBN, GF or PJ induced CA or cell death (Table 8) in these cell lines. […] In comparison, 10 and 25 μM RBN increased peak CA over controls in interphase cells (p<0.001 and p=0.001, respectively), with the lower concentration dramatically augmenting peak CA to 56% of cells versus 15% for the higher dose (FIG. 9B). Only 10 but not 25 μM RBN increased the extent of CA in mitotic cells, and this upregulation was only slight (10%, p=0.041).

[3] = tested on: human dermal fibroblasts (HDFs); assay: Centrosome amplification (CA) by microscopy, HDFs; settings: for change of CA over controls (in words): any concentration or time point assessed
Description: as §2, §3

231 cells [4] = assay: Mitotic arrest (MA) by flow cytometry, 231 cells; settings: 10 μM
Description: FIGS. 2A-2C depict mitotic arrest (MA) phenotypes observed upon treatment with putative centrosome declustering drugs. […] Declustering drugs included Nos, BN, RBN, PJ, and GF, all at 10 and 25 μM except GF, which was used at 25 and 50 μM, and cell lines included 231, PC3, and HeLa. […] In general, MA increased from 0 h to a peak near 24 h, followed by a decline in MA that coincided with increases in subG1 fractions. Results are representative of three independent experiments. […] Drugs are ranked in order of increasing peak subG1 from bottom to top along the y axis. […] Increased levels of both cyclins compared with controls (0 h) were detected across cell lines with variable expression patterns depending on the drug and cell line. To evaluate apoptosis, cleaved caspase-3 (C. Caspase-3) was immunoblotted and eventual increases over controls were universally detected, typically by 24 h.
To evaluate the impact of putative declustering drugs on cell cycle progression and hypodiploidy (<2N DNA content, which may indicate apoptotic cells), MDA-MB-231 (231), PC3, and HeLa cells were treated with different concentrations of declustering drugs, stained with propidium iodide, labeled with anti-MPM2 antibody, and then assessed by flow cytometry at multiple time points over 48 h. […]

[5] = tested on: adult human dermal fibroblasts (HDF); assay: subG1 (hypodiploid) fraction by flow cytometry, HDFs
PC3 cells = assay: subG1 (hypodiploid) fraction by flow cytometry, PC3 cells
Description: as §1

MDA-MB-231 (231) cells = assay: subG1 (hypodiploid) fraction by flow cytometry, 231 cells
Description: as §1

HDFs and MCF10A cells = assay: Spindle multipolarity (MP) in non-malignant cell lines
231 cells [6] = assay: Centrosome amplification (CA) by microscopy, 231 cells; settings: 25 μM
Description: (§4) Consequently, CA was assessed in cultures treated with different concentrations of declustering drugs for 6, 12, 18, or 24 h and untreated controls via microscopy. […] The peak percent CA detected over 24 h is shown in FIG. 6 (only statistically significant (P<0.05) increases over control values are represented in the Figures). Representative confocal micrographs of CA in interphase and mitotic cells, both control and drug treated, are depicted in FIG. 7. […] To better understand the “potency” of drug-induced CA with time, the average fold change in CA over controls over 24 h was assessed (FIG. 5A), whereby the extent of CA across time points (i.e., 6, 12, 18, and 24 h) was averaged and then divided by the extent of CA in control (i.e., 0 h). […] For Nos and BN, there was no major difference in CA levels in interphase versus mitotic cells.

[7] = tested on: MDA-MB-231 (231), PC3, and HeLa cells; assay: Mitotic arrest (MA) by flow cytometry (MPM2/PI), across cell lines; settings: coarse-grained categories
Description: Trypsinized cells were resuspended in PBS at 10^6 cells/ml. Cells were then fixed by addition of ice-cold 70% ethanol. Ethanol-fixed cells were kept overnight at 4° C. before staining. Cells were pelleted and washed twice with PBS. Cell pellets were incubated for an hour at room temperature with mouse anti-MPM-2 antibody (Millipore, Mass., USA), followed by 1 h incubation with Alexa-488 anti-mouse secondary antibody (Life Technologies, NY, USA). Finally cells were washed, pelleted and resuspended in propidium iodide-containing isotonic buffer (0.1 mg/mL) and 0.5% Triton X-100. Cell cycle distribution was determined by flow cytometry using an LSR Fortessa Flow cytometer (BD Biosciences, CA, USA) and analyzed using Flowjo software (Tree Star, OR, USA).
To evaluate the impact of putative declustering drugs on cell cycle progression and hypodiploidy (<2N DNA content, which may indicate apoptotic cells), MDA-MB-231 (231), PC3, and HeLa cells were treated with different concentrations of declustering drugs, stained with propidium iodide, labeled with anti-MPM2 antibody, and then assessed by flow cytometry at multiple time points over 48 h. […] The duration, highest degree, and rapidity of onset of MA varied between drugs, drug concentrations, and cell lines (FIGS. 2A, 2B). In general, the maximum MA achieved was less pronounced in Nos- and PJ-treated cells (FIGS. 2A, 2B). […]

HeLa cells [8] = assay: Centrosome amplification (CA) by microscopy, HeLa cells; settings: interphase, 25 μM
Description: as §4

SMILES	Peak subG1 percent over 48 h (HeLa cells [1]; 10 μM)	Peak subG1 percent over 48 h (HeLa cells [1]; 25 μM)	change of peak subG1 percent compared to controls (in words) [2]	Peak subG1 percent over 48 h ([2]; 10 μM)	Peak subG1 percent over 48 h ([2]; 25 μM)	change of CA over control levels (in words) (MCF10A cells)	change of CA over controls (in words) [3]	Peak subG1 percent over 48 h ([5]; 10 μM)	Peak subG1 percent over 48 h ([5]; 25 μM)	Peak subG1 percent over 48 h (PC3 cells; 10 μM)	Peak subG1 percent over 48 h (PC3 cells; 25 μM)	maximum subG1 fraction relative to control (PC3 cells; 25 μM)	Peak subG1 percent over 48 h (MDA-MB-231 (231) cells; 10 μM)	Peak subG1 percent over 48 h (MDA-MB-231 (231) cells; 25 μM)	maximum subG1 fraction relative to control (MDA-MB-231 (231) cells; 25 μM)	induction of MP over control levels (HDFs and MCF10A cells)	also measured
COc1ccc2c(c1OC)C(=O)O[C@@H]2[C@H]1c2c(c(Br)c3c(c2OC)OCO3)CCN1C [BN, 9-bromonoscapine]	42.0%	54.9%	did not cause a significant increase in peak subG1 percent compared to controls	3.5%	3.0%	neither concentrations of Nos or BN significantly increased CA over control levels	did not significantly increase the extent of CA over controls	16.5%	20.4%	46.0%	42.8%	9.2 × control	32.5%	65.2%	9.3 × control	–	maximum subG1 fraction relative to control (HeLa cells [1]; 25 μM): 4.4 × control; mitotic arrest (in words) (231 cells [4]): did not cause any MA
COC1=CC(=O)C[C@@H](C)[C@]12Oc1c(Cl)c(OC)cc(OC)c1C2=O [GF, griseofulvin]	–	59.5%	did increase peak SubG1 in MCF10A cells compared to controls	–	22.7%	–	–	–	32.9%	–	33.7%	–	–	62.0%	6.4 × control	significantly induce MP over control levels	Peak subG1 percent over 48 h (HeLa cells [1]; 50 μM): 79.0%; maximum subG1 fraction relative to control (HeLa cells [1]; 50 μM): 4.3 × control; Peak subG1 percent over 48 h ([2]; 50 μM): 35.1%; peak interphase CA (MCF10A cells; interphase, 25 and 50 μM): 13-16%; change of CA in mitotic cells (in words) (MCF10A cells; mitotic, 25 and 50 μM): no increase was observed in mitotic cells; peak CA in interphase cells ([3]; interphase, 25 and 50 μM): 14-15%; Peak subG1 percent over 48 h ([5]; 50 μM): 38.3%; Peak subG1 percent over 48 h (PC3 cells; 50 μM): 39.5%; maximum subG1 fraction relative to control (PC3 cells; 50 μM): 16.3 × control; Peak subG1 percent over 48 h (MDA-MB-231 (231) cells; 50 μM): 60.0%
COc1ccc2c(c1OC)C(=O)O[C@@H]2[C@H]1c2c(cc3c(c2OC)OCO3)CCN1C [Nos, noscapine]	25.0%	50.1%	did not cause a significant increase in peak subG1 percent compared to controls	4.1%	4.2%	neither concentrations of Nos or BN significantly increased CA over control levels	did not significantly increase the extent of CA over controls	14.8%	11.2%	29.9%	32.7%	–	26.3%	43.9%	–	–	induction of significant CA (231 cells [6]): failed to induce significant CA
CN(C)CC(=O)Nc1ccc2[nH]c(=O)c3ccccc3c2c1 [PJ, PJ-34]	48.5%	64.4%	did not cause a significant increase in peak subG1 percent compared to controls	6.9%	9.1%	increased the peak extent of CA in interphase and mitotic cells	no significant impact on CA in HDFs	13.6%	28.2%	62.4%	48.4%	7.9 × control	37.0%	55.0%	10.4 × control	significantly induce MP over control levels	mean time to peak MA (MA:TRH) [7]: ~12 h; maximum subG1 fraction relative to control (HeLa cells [1]; 10 μM): 4.8 × control; peak extent of CA in interphase cells (MCF10A cells; interphase, 10 μM): 8%; fold increase in peak CA extent, interphase cells (HeLa cells [8]): ~20 fold; peak / final extent of CA in interphase cells (HeLa cells [8]): < 20%
